What was measured:
[1] = target: T1, human adenosine A2A receptor (Homo sapiens, UniProt P29274); assay: Antagonizing effect on human adenosine A2A receptor (cAMP, TR-FRET, NECA-stimulated HEK-293 cells); assay type: cell-based; settings: inhibition of cAMP produced by NECA (3 nM), HEK-293 cells expressing human recombinant A2A receptor
T1 construct: expressed in transfected cells; host or cells: HEK-293
Procedure: The experimental system uses human recombinant adenosine A2A receptor, which is stably expressed in HEK-293 cell line. HEK-293 cells were inoculated into culture plate at a density of 1.25×10^5 cells /mL. The medium was changed by modified HBSS solution with pH 7.4, different concentrations of test compounds (10 μM, 1 μM, 0.1 μM, 10 nM, 1 nM, 0.1 nM) and solvents (PBS with 0.1% DMSO) were added, and the plate was incubated at 37° C. for 10 min. cAMP (cyclic adenosine monophosphate) concentration in culture medium was detected by TR-FRET method. NECA was used as a positive control in this experiment, (1) test compounds alone were used to stimulate cells to produce a certain amount of cAMP, and then NECA (0.1 μM) alone was used to stimulate cells to produce a certain amount of cAMP. A test compound is considered to have agonistic activity on adenosine A2A receptor if the test compound alone stimulates cells to produce cAMP more than 50% of the amount of cAMP produced by NECA (0.1 μM) alone. (2) All cells were first incubated with test compounds and then stimulated with NECA (3 nM). In addition, NECA (3 nM) alone was used to stimulate cells to produce a certain amount of cAMP. […] IC50 was calculated using MathIQ™ (ID Business Solutions Ltd., UK) through nonlinear, least squares regression equation analysis.

[2] = Pharmacokinetic evaluation in beagles after intravenous or intragastric administration; assay type: in vivo, beagle
Procedure: The LC/MS/MS system for analysis includes the Agilent 1200 series vacuum degasser, a quaternary pump, an orifice plate sampler, a thermostatted column oven, and an API4000Qtrap triple quadrupole mass spectrometer with an electrospray ionization source (ESI).
Waters xbridge C18, 2.1×50 mm, 3.5 μm column was used for analysis, and 0.5 μL of sample was injected. Analytical conditions: mobile phase consisting of mobile phase A (H2O+2 mM HCOONH4 (ammonium formate) +0.1% FA (formic acid)) and mobile phase B (MeOH (methanol)+2 mM HCOONH4 (ammonium formate)+0.1% FA (formic acid)). Flow rate was 0.7 mL/min.
(§1) The experiment was divided into two groups: one was administered by intravenous injection, and the other was administered by intragastric administration. The compound of the present invention was administered to a test animal in the form of 10% DMA (heating)+60% PEG400+30% saline solution. For the group of intravenous administration, the administration dose was 1 mg/kg, and vein blood samples (0.3 mL) were collected at the time points of 0.083, 0.25, 0.5, 1.0, 2.0, 4.0, 6.0, 8.0 and 24 h after administration. The plasma solutions were collected (EDTA-K2 as anticoagulant) by centrifuging each blood sample at 3,000 rpm or 4,000 rpm for 10 minutes and then kept at −20° C. or −70° C. For the group of intragastric administration, the administration dose was 5 mg/kg, and vein blood samples (0.3 mL) were collected at the time points of 0.25, 0.5, 1.0, 2.0, 5.0, 7.0 and 24 h after administration. The plasma solutions were collected (EDTA-K2 as anticoagulant) by centrifuging each blood sample at 3,000 rpm or 4,000 rpm for 10 minutes and then kept at −20° C. or −70° C.
10 μL of plasma was taken, 120 μL of IS working solution was added to the plasma, and the plasma mixture was vortexed for 2 min. The mixed solution was then centrifuged at 12,000 rpm for 2 min. 80 μL of the supernatant was taken, 140 μL of methanol/H2O (v/v =1/1) was added, and the solution was vortexed for 2 minutes, then 1.0 μL was taken for injection into the LC-MS/MS system. LC-MS/MS method was used to detect the concentration of target compounds, and non-compartment model was used to calculate pharmacokinetic parameters, and the results were shown in table C.

[3] = Pharmacokinetic evaluation in rats after intravenous or intragastric administration; assay type: in vivo, SD rats; settings: for AUC(0-inf) / AUC(0-t) / Cmax / MRT inf / Tmax / clearance / half-life: SD, rat, plasma
Procedure: The LC-MS/MS system for analysis includes the Agilent 1200 series vacuum degasser, a quaternary pump, an orifice plate sampler, a thermostatted column oven, and an API4000Qtrap triple quadrupole mass spectrometer with an electrospray ionization source (ESI).
Waters ACQUITY UPLC CSH C18, 2.1×50 mm, 1.7 μm column was used for analysis, and 0.8 μL of sample was injected. Analytical conditions: mobile phase was H2O+2 mM HCOONH4 (ammonium formate)+0.1% FA (formic acid) (mobile phase A) and MeOH (methanol)+2 mM HCOONH4 (ammonium formate)+0.1% FA (formic acid) (mobile phase B). Flow rate was 0.7 mL/min.
as §1, with “test animal (overnight fast for 12 hours) in the” for “test animal in the”, “1.0, 2.0, 5.0, 7.0 and 24” for “1.0, 2.0, 4.0, 6.0, 8.0 and 24”, “after administration. EDTA-K2 as anticoagulant was added into the blood vessel. The plasma” for “after administration. The plasma”, “were collected by centrifuging” for “were collected (EDTA-K2 as anticoagulant) by centrifuging”, “minutes and kept at” for “minutes and then kept at”
20 μL of plasma was taken, 120 μL of IS working solution was added to the plasma, and the plasma mixture was vortexed for 2 min. The mixed solution was then centrifuged at 12,000 rpm for 2 min. 100 μL of the supernatant was taken, 110 μL of MeOH/H2O (v/v=1/1) was added, and the solution was vortexed for 2 minutes, then 5 μL was taken for inj ection into the LC-MS/MS system.

[4] = beagle, dog, plasma, intravenous injection, 1 mg/kg
[5] = beagle, dog, plasma, po, intragastric administration, 5 mg/kg
[6] = intragastric administration, 5 mg/kg
[7] = po, intragastric administration, 5 mg/kg

T1 sequence (P29274 whole entry): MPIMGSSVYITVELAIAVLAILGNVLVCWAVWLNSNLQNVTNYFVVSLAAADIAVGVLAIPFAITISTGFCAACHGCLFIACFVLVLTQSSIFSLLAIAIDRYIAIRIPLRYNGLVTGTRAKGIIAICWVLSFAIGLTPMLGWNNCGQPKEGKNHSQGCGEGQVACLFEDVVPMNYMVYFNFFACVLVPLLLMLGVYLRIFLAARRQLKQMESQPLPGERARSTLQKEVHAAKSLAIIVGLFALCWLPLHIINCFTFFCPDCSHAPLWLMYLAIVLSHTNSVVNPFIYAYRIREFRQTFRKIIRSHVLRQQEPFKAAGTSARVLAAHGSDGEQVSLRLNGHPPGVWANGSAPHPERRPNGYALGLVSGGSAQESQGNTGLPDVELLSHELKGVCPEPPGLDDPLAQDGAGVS

| Compound | IC50 [1] [nM] | AUC(0-inf) ([3]; intravenous injection, 1 mg/kg) [ng·h/mL] | AUC(0-t) ([3]; intravenous injection, 1 mg/kg) [ng·h/mL] | Cmax ([3]; intravenous injection, 1 mg/kg) [ng/mL] | MRT inf ([3]; intravenous injection, 1 mg/kg) [h] | Tmax ([3]; intravenous injection, 1 mg/kg) [min] | clearance ([3]; intravenous injection, 1 mg/kg) [mL/min/kg] | half-life ([3]; intravenous injection, 1 mg/kg) [min] | AUC(0-inf) [3, 7] [ng·h/mL] | AUC(0-t) [3, 7] [ng·h/mL] | Cmax [3, 7] [ng/mL] | MRT inf [3, 7] [h] | Tmax [3, 7] [min] | half-life [3, 7] [min] | F [3, 6] [%] | Vss ([3]; intravenous injection, 1 mg/kg) [kg⁻¹] | further results |
| --- | --- | --- | --- | --- | --- | --- | --- | --- | --- | --- | --- | --- | --- | --- | --- | --- | --- |
| CCn1c(=O)c2c(nc(/C=C/c3ccc(OC4CCS(=O)(=O)CC4)cc3)n2C)n(CC)c1=O [Example 1, (E)-8-(4-((1,1-dioxidotetrahydro-2H-thiopyran-4-yl)oxy)styryl)-1,3-diethyl-7-methyl-1H-purine-2,6(3H,7H)-dione] | 2510 | 4360 | 4340 | 879 | 4.26 | 4.98 | 3.82 | 201 | 32300 | 32100 | 3660 | 5.2 | 100 | 203 | 148.2 | 0.977 | AUC(0-inf) [2, 4]: 56300 ng·h/mL; AUC(0-t) [2, 4]: 25400 ng·h/mL; Cmax [2, 4]: 1870 ng/mL; MRT inf [2, 4]: 41.5 h; Tmax [2, 4]: 1 h; clearance [2, 4]: 0.296 mL/min/kg; half-life [2, 4]: 1830 min; AUC(0-inf) [2, 5]: 114000 ng·h/mL; AUC(0-t) [2, 5]: 40300 ng·h/mL; Cmax [2, 5]: 2530 ng/mL; MRT inf [2, 5]: 54 h; Tmax [2, 5]: 4.67 h; half-life [2, 5]: 2210 min; F [2, 6]: 38.7%; Vss ([2]; intravenous injection, 1 mg/kg): 0.737 kg⁻¹ |
| CCn1c(=O)c2c(nc(/C=C/c3ccc(OC4CCS(=O)(=O)CC4)c(F)c3)n2C)n(CC)c1=O [Example 2, (E)-8-(4-((1,1-dioxidotetrahydro-2H-thiopyran-4-yl)oxy)-3-fluorostyryl)-1,3-diethyl-7-methyl-1H-purine-2,6(3H,7H)-dione] | 3250 | 4230 | 4180 | 985 | 4.35 | 4.98 | 3.94 | 240 | 24400 | 23700 | 3110 | 5.94 | 100 | 286 | 110.2 | 1.03 |  |
| CCn1c(=O)c2c(nc(/C=C/c3ccc(OC4CCS(=O)(=O)CC4)nc3)n2C)n(CC)c1=O [Example 4, (E)-8-(2-(6-((1,1-dioxidotetrahydro-2H-thiopyran-4-yl)oxy)pyridin-3-yl)vinyl)-1,3-diethyl-7-methyl-1H-purine-2,6(3H,7H)-dione] | 2990 |  |  |  |  |  |  |  |  |  |  |  |  |  |  |  |  |
| CCn1c(=O)c2c(nc(/C=C/c3ccc(OC4CCC(F)(F)CC4)cc3)n2C)n(CC)c1=O [Example 6, (E)-8-(4-((4,4-difluorocyclohexyl)oxy)styryl)-1,3-diethyl-7-methyl-1H-purine-2,6(3H,7H)-dione] | 1480 |  |  |  |  |  |  |  |  |  |  |  |  |  |  |  |  |
